Assay results published in article PMC7470115, “Design, synthesis and biological evaluation of novel tetrahydrothieno [2,3-c]pyridine substitued benzoyl thiourea derivatives as PAK1 inhibitors in triple negative breast cancer” (Journal of Enzyme Inhibition and Medicinal Chemistry, 2020).

Columns and labels:
MDA-MB-231 cells = experiment: Cell viability assay (MTT); format: cell-based; details: 50 μM
Procedure: MDA-MB-231 were purchased from American Type Culture Collection (ATCC, Manassas, VA, USA). Cells were cultured in DMEM with 10% foetal bovine serum and incubated with 5% CO2. Antibodies used in this study were as follows: cdc25c (4688, CST), pcdc2^Tyr[15] (4539, CST), cyclinB1 (4135, CST), PAK1 (ab223849, CST), p-PAK1^Ser199 (ab192814, abcam), JNK (9252, CST), p-JNK (9255, CST), c-Jun (9165, CST), p-c-Jun (3270, CST), p-c-Raf^Ser259(9421, CST), p-MEK ^Ser217/221 (9154, CST), p-ERK ^Thr202/Tyr204 (9101, CST), β-actin (3700, CST). MTT (M2128) was purchased from Sigma- Aldrich (St. Louis, MO, USA).
Cells were dispensed in 96-well plates at a density of 5 × 10^4 cells/ml. After 24 h or 48 h incubation, cells were treated with different concentrations of compounds for the indicated time periods. Cell viability was measured by the MTT assay.

PAK1 = PAK1 (Homo sapiens, UniProt Q13153); experiment: PAK1 enzymatic assay (Kinase-Glo Plus / ADP-Glo luminescence); format: biochemical; details: for IC50: tested in triplicate, mean ± SD, 50 µM ATP, read-out: Kinase inhibitory activity (IC50, μM) PAK1
Procedure: These assays were carried out as described previously. All of the enzymatic reactions were conducted at 30 °C for 40 min. The 50 µl reaction mixture contains 40 mM Tris, pH 7.4, 10 mM MgCl2, 0.1 mg/ml BSA, 1 mM DTT, 50 µM ATP, 0.2 μg/ml PAK1 and 100 uM lipid substrate. The compounds were diluted in 10% DMSO and 5 µl of the dilution was added to a 50 µl reaction so that the final concentration of DMSO is 1% in all of the reactions. The assay was performed using the Kinase-Glo Plus luminescence kinase assay kit and ADP-Glo Plus luminescence kinase assay kit. It measures kinase activity by quantitating the amount of ATP remaining in solution following a kinase reaction. The luminescent signal from the assay is correlated with the amount of ATP present and is inversely correlated with the amount of kinase activity. The IC50 values were calculated using nonlinear regression with normalised dose − response fit using Prism GraphPad software.

Chain of PAK1 (Q13153 whole entry): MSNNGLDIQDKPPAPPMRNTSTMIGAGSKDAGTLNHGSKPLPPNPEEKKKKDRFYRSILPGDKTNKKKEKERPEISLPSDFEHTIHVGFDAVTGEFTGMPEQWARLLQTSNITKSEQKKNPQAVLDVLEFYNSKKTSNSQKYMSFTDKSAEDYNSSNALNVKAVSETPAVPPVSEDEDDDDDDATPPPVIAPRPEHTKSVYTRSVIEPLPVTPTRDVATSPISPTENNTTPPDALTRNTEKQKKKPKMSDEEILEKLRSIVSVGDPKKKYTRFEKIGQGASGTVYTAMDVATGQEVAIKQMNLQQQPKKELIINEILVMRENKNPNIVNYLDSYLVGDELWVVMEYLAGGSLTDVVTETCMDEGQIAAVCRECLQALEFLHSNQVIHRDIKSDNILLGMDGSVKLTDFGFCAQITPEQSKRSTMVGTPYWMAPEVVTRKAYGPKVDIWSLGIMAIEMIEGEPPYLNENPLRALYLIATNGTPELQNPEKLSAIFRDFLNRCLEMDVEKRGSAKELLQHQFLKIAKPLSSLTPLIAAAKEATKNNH

Compound	IC50 (PAK1)	further results
CC(C)(C)OC(=O)N1CCc2c(sc(NC(=O)c3ccccc3)c2C(N)=O)C1 [2169–1087]	23.5 µM	Antiproliferatory activity in MDA-MB-231 cells at 50 μM (MDA-MB-231 cells): no antiproliferatory activity; inhibition at 30 µM (PAK1; read-out: PAK1 inhibition rate at 30 μM): 78%
NC(=O)c1c(NC(=S)NC(=O)c2cccc(C(F)(F)F)c2)sc2c1CCN(C(=O)c1ccccc1Cl)C2 [Compound 7c, 6–(2-chlorobenzoyl)-2–(3-(3-(trifluoromethyl)benzoyl)thioureido)-4,5,6,7-tetrahydrothieno[2,3-c]pyridine-3-carboxamide]	9.37 ± 1.03 µM	melting point: 166 to 169 °C
CC(C)(C)OC(=O)N1CCc2c(sc(NC(=S)NC(=O)c3cccc(Cl)c3)c2C(N)=O)C1 [Compound 5l, Tert-butyl-3-carbamoyl-2–(3-(3-chlorobenzoyl)thioureido)-4,7-dihydrothieno[2,3-c]pyridine-6(5H)-carboxylate]	5.15 ± 0.54 µM	–
Cc1cccc(C(=O)NC(=S)Nc2sc3c(c2C(N)=O)CCN(C(=O)OC(C)(C)C)C3)c1 [Compound 5d, Tert-butyl-3-carbamoyl-2–(3-(3-methylbenzoyl)thioureido)-4,7-dihydrothieno[2,3-c]pyridine-6(5H)-carboxylate]	4.32 ± 0.51 µM	–
CC(C)(C)OC(=O)N1CCc2c(sc(NC(=S)NC(=O)c3cccc(C(F)(F)F)c3)c2C(N)=O)C1 [Compound 5m, Tert-butyl-3-carbamoyl-2–(3-(3-(trifluoromethyl)benzoyl)thioureido)-4,7-dihydrothieno[2,3-c]pyridine-6(5H)-carboxylate]	2.02 ± 0.27 µM	–
CC(C)(C)OC(=O)N1CCc2c(sc(NC(=S)NC(=O)c3ccccc3Cl)c2C(N)=O)C1 [Compound 5k, Tert-butyl-3-carbamoyl-2–(3-(2-chlorobenzoyl)thioureido)-4,7-dihydrothieno[2,3-c]pyridine-6(5H)-carboxylate]	8.65 ± 0.93 µM	–
CC(C)(C)OC(=O)N1CCc2c(sc(NC(=S)NC(=O)C3CCCCC3)c2C(N)=O)C1 [Compound 5p, Tert-butyl-3-carbamoyl-2–(3-(cyclohexanecarbonyl)thioureido)-4,7-dihydrothieno[2,3-c]pyridine-6(5H)-carboxylate]	19.3 ± 1.85 µM	–
CC(C)(C)OC(=O)N1CCc2c(sc(NC(=S)NC(=O)c3ccc(F)cc3)c2C(N)=O)C1 [Compound 5h, Tert-butyl-3-carbamoyl-2–(3-(4-fluorobenzoyl)thioureido)-4,7-dihydrothieno[2,3-c]pyridine-6(5H)-carboxylate]	5.33 ± 0.65 µM	–
NC(=O)c1c(NC(=S)NC(=O)c2cccc(C(F)(F)F)c2)sc2c1CCN(C(=O)c1ccc(Cl)cc1)C2 [Compound 7b, 6–(4-chlorobenzoyl)-2–(3-(3-(trifluoromethyl)benzoyl)thioureido)-4,5,6,7-tetrahydrothieno[2,3-c]pyridine-3-carboxamide]	13.2 ± 1.39 µM	–
CC(C)(C)OC(=O)N1CCc2c(sc(NC(=S)NC(=O)c3cccc(Cl)c3Cl)c2C(N)=O)C1 [Compound 5o, Tert-butyl-3-carbamoyl-2–(3-(2,3-dichlorobenzoyl)thioureido)-4,7-dihydrothieno[2,3-c]pyridine-6(5H)-carboxylate]	7.43 ± 0.81 µM	–
COc1ccc(C(=O)NC(=S)Nc2sc3c(c2C(N)=O)CCN(C(=O)OC(C)(C)C)C3)cc1 [Compound 5f, Tert-butyl-3-carbamoyl-2–(3-(4-methoxybenzoyl)thioureido)-4,7-dihydrothieno[2,3-c]pyridine-6(5H)-carboxylate]	16.4 ± 1.78 µM	–

Continued, in another order:

IC50 (PAK1)	Compound	further results
4.55 ± 0.51 µM	NC(=O)c1c(NC(=S)NC(=O)c2cccc(C(F)(F)F)c2)sc2c1CCN(C(=O)C1CCCCC1)C2 [Compound 7m, 6-(cyclohexanecarbonyl)-2–(3-(3-(trifluoromethyl)benzoyl)thioureido)-4,5,6,7-tetrahydrothieno[2,3-c]pyridine-3-carboxamide]	–
3.87 ± 0.35 µM	CC(C)CC(=O)N1CCc2c(sc(NC(=S)NC(=O)c3cccc(C(F)(F)F)c3)c2C(N)=O)C1 [Compound 7f, 6–(3-methylbutanoyl)-2–(3-(3-(trifluoromethyl)benzoyl)thioureido)-4,5,6,7-tetrahydrothieno[2,3-c]pyridine-3-carboxamide]	–
4.14 ± 0.51 µM	C/C=C/C(=O)N1CCc2c(sc(NC(=S)NC(=O)c3cccc(C(F)(F)F)c3)c2C(N)=O)C1 [Compound 7h, (E)-6-(but-2-enoyl)-2–(3-(3-(trifluoromethyl)benzoyl)thioureido)-4,5,6,7-tetrahydrothieno[2,3-c]pyridine-3-carboxamide]	–
0.68 ± 0.07 µM	NC(=O)c1c(NC(=S)NC(=O)c2cccc(C(F)(F)F)c2)sc2c1CCN(C(=O)C1CCC1)C2 [Compound 7k, 6-(cyclobutanecarbonyl)-2–(3-(3-(trifluoromethyl)benzoyl)thioureido)-4,5,6,7-tetrahydrothieno[2,3-c]pyridine-3-carboxamide]	–
1.09 ± 0.09 µM	NC(=O)c1c(NC(=S)NC(=O)c2cccc(C(F)(F)F)c2)sc2c1CCN(C(=O)C1CCCC1)C2 [Compound 7l, 6-(cyclopentanecarbonyl)-2–(3-(3-(trifluoromethyl)benzoyl)thioureido)-4,5,6,7-tetrahydrothieno[2,3-c]pyridine-3-carboxamide]	–
4.87 ± 0.65 µM	NC(=O)c1c(NC(=S)NC(=O)c2cccc(C(F)(F)F)c2)sc2c1CCN(C(=O)C1CCOCC1)C2 [Compound 7n, 6-(tetrahydro-2H-pyran-4-carbonyl)-2–(3-(3-(trifluoromethyl)benzoyl)thioureido)-4,5,6,7-tetrahydrothieno[2,3-c]pyridine-3-carboxamide]	–
1.15 ± 0.97 µM	CC(=O)N1CCc2c(sc(NC(=S)NC(=O)c3cccc(C(F)(F)F)c3)c2C(N)=O)C1 [Compound 7d, 6-acetyl-2–(3-(3-(trifluoromethyl)benzoyl)thioureido)-4,5,6,7-tetrahydrothieno[2,3-c]pyridine-3-carboxamide]	melting point: 166 to 169 °C
